Holding throughout (format): biochemical
In one assay the target is T1, Zap-70 (Homo sapiens, UniProt P43403).
T1 construct: Kinases are expressed as either kinase domains or full length constructs; made in house
T1 sequence (P43403 1-619): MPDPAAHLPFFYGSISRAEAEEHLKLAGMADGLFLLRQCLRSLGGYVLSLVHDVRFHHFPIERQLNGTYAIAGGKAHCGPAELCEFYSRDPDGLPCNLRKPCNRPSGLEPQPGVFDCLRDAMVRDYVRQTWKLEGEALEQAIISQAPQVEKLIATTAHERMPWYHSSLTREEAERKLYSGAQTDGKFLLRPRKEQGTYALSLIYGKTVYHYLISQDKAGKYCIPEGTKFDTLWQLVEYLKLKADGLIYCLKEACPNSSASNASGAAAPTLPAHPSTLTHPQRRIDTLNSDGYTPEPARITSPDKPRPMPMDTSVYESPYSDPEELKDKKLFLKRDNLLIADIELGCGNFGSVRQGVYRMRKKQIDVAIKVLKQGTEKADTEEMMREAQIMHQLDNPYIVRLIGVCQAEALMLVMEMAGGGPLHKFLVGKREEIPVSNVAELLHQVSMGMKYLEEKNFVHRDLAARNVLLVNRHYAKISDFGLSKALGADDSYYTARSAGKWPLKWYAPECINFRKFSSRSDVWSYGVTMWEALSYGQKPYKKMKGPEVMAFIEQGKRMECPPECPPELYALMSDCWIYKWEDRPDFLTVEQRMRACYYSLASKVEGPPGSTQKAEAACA
In words: Kinase inhibition assay (33P transfer), Zap-70. To be noted: read-out: Zap-1. The gist of the method:
(§1)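 Filterless plate radiometric format: immobilized poly(Glu,Tyr) 4:1 or poly(Arg,Ser) 3:1, 33P-labelled ATP, tagged recombinant kinase (some with regulatory partners). Incorporated label counted after phosphoric acid wash.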

The next assay has as its target T2, Lck (Homo sapiens, UniProt P06239).
T2 construct: Kinases are expressed as either kinase domains or full length constructs; made in house
The assay is described as follows: Kinase inhibition assay (33P transfer), Lck. The conditions noted are these: read-out: Lck-1. The method in brief: as §1

The next assay deals with T3, Tek (Homo sapiens, UniProt Q02763).
T3 construct: Kinases are expressed as either kinase domains or full length constructs; made in house
The assay is described as follows: Kinase inhibition assay (33P transfer), Tek. The conditions noted are these: read-out: Tek-1. The gist of the method: (§2)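 IC50: inhibitor concentration lowering 33P incorporation into immobilised substrate by 50%. Label transferred from ATP to poly(Glu,Tyr) 4:1 or poly(Arg,Ser) 3:1 is measured after a 0.5% phosphoric acid wash by liquid scintillation.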

For another assay, the target named is T4, Kdr (Homo sapiens, UniProt P35968).
T4 construct: Kinases are expressed as either kinase domains or full length constructs; made in house
In words: Kinase inhibition assay (33P transfer), Kdr. To be noted: read-out: KDR-1. The method in brief:
as §1

The target in the next assay is T5, EGFR (Homo sapiens, UniProt P00533).
T5 construct: Kinases are expressed as either kinase domains or full length constructs; made in house
In words: Kinase inhibition assay (33P transfer), EGFR. The conditions noted are these: Table 2, kinase inhibition class; read-out: EGFR-1. The method in brief:
as §2

Another assay has as its target T6, AKT (Homo sapiens, UniProt Q9Y243).
T6 construct: Kinases are expressed as either kinase domains or full length constructs; made in house
In words: Kinase inhibition assay (33P transfer), AKT. To be noted: Table 2, kinase inhibition class; read-out: AKT3-1. The method in brief:
as §1

The target in the next assay is T7, c-Met (Homo sapiens, UniProt P08581).
T7 construct: Kinases are expressed as either kinase domains or full length constructs; made in house
The assay is described as follows: Kinase inhibition assay (33P transfer), c-Met. To be noted: Table 2, kinase inhibition class; read-out: Met-1. The gist of the method: as §2

The next assay deals with T8, Itk (Homo sapiens, UniProt Q08881).
T8 construct: Kinases are expressed as either kinase domains or full length constructs; made in house
T8 sequence (Q08881 1-620): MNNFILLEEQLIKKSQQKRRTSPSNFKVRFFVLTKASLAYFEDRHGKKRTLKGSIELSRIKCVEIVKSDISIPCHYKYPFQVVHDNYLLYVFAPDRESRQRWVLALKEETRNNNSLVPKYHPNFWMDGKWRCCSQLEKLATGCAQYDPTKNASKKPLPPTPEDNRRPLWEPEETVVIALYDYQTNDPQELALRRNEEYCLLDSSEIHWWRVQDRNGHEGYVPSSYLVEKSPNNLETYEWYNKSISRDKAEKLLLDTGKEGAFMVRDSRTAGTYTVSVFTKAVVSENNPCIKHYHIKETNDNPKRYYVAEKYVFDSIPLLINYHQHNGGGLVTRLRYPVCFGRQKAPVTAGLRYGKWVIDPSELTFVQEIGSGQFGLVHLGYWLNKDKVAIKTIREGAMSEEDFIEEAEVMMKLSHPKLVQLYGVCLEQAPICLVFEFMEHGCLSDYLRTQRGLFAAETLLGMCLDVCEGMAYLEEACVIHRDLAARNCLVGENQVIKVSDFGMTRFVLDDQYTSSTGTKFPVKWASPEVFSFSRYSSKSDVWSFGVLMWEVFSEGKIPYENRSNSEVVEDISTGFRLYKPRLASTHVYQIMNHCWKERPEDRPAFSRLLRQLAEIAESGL
The assay is described as follows: Kinase inhibition assay (33P transfer), Itk. To be noted: read-out: Itk-1. The gist of the method: as §2

Read-outs that look alike come from different tables or passages of the source. Bounds are passed on as bounds.

T2 sequence (P06239 whole entry, species assumed, the tested form may be a part): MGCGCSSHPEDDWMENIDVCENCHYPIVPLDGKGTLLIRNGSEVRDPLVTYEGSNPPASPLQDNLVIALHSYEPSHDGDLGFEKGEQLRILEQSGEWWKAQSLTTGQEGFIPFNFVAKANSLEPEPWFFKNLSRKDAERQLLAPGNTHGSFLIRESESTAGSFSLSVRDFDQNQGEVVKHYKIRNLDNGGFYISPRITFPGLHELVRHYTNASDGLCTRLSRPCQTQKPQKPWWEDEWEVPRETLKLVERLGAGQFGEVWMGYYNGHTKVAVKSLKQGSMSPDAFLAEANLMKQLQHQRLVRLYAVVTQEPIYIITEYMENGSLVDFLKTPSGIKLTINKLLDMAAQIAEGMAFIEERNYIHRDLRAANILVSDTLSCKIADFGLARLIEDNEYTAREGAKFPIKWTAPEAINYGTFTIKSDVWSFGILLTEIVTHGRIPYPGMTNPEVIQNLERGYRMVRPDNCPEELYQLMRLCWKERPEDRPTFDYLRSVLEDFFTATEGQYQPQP
T3 sequence (Q02763 23-1124, species assumed): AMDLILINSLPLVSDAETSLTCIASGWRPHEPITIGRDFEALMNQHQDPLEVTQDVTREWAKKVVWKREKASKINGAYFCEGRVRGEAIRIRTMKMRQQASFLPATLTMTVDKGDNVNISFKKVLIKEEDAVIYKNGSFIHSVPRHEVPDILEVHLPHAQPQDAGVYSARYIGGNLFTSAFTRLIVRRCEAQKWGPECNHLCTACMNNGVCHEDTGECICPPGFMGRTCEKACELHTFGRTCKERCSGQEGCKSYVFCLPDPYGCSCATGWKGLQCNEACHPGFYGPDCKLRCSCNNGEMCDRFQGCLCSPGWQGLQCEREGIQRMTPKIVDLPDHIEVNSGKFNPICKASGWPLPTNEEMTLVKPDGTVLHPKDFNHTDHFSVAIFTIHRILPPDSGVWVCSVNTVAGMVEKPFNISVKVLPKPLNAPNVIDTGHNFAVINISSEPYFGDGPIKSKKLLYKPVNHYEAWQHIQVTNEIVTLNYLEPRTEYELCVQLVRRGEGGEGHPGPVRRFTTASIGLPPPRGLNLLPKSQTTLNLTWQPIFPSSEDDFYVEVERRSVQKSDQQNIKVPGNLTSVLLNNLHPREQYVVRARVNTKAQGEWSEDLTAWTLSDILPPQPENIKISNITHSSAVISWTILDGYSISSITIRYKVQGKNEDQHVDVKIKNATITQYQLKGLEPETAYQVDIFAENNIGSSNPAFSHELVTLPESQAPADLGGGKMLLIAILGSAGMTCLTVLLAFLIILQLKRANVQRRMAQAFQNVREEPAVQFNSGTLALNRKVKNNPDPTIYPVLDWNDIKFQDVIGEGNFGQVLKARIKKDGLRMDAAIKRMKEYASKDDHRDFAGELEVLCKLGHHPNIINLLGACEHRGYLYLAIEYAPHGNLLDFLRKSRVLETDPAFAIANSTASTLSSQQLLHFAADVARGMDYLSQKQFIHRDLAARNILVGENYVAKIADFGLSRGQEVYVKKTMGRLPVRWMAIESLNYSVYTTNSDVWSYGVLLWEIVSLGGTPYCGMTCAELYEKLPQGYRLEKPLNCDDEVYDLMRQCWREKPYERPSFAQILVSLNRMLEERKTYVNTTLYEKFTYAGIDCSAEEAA
T5 sequence (P00533 25-1210, species assumed): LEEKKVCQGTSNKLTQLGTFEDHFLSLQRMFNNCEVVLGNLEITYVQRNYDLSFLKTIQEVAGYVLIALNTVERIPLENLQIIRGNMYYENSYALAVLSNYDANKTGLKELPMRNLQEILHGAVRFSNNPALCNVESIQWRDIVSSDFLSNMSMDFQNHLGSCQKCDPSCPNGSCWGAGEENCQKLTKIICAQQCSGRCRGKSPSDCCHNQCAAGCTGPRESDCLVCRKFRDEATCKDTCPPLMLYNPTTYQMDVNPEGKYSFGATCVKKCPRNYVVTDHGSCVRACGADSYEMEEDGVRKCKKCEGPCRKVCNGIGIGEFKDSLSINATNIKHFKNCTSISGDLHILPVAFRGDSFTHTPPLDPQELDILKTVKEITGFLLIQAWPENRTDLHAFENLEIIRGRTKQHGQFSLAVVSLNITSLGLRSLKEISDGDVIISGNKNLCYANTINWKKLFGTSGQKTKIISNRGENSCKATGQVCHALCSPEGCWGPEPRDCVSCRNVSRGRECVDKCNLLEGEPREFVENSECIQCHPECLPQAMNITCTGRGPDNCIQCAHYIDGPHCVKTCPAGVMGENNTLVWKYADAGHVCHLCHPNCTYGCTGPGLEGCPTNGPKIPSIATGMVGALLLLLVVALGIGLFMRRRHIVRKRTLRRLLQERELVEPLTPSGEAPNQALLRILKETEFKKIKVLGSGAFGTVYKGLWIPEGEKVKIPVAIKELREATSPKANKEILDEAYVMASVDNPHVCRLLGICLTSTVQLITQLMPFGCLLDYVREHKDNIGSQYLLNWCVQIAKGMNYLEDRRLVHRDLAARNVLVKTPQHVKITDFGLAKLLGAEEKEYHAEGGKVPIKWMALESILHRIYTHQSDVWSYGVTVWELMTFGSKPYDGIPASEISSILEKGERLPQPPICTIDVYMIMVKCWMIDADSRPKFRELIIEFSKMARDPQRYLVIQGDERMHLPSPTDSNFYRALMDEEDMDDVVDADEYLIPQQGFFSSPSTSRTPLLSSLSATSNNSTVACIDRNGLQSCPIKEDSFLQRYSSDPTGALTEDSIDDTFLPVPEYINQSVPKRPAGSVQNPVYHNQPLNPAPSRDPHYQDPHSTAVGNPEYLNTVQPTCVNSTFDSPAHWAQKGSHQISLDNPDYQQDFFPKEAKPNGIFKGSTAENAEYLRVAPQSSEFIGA
T6 sequence (Q9Y243 whole entry, the tested form may be a part): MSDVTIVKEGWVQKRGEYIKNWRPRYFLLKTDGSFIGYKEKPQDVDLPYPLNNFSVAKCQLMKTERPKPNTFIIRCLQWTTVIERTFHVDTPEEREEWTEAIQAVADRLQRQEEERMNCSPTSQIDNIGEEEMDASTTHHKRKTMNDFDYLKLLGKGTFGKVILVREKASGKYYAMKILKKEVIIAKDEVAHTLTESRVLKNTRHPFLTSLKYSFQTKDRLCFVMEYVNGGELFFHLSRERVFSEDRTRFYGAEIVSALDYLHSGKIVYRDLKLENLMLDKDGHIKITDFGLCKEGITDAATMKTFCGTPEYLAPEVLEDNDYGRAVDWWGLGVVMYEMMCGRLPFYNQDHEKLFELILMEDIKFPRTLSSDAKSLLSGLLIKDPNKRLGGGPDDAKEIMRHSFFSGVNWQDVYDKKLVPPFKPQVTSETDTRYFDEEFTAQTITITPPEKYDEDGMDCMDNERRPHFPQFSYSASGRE
T7 sequence (P08581 25-1390): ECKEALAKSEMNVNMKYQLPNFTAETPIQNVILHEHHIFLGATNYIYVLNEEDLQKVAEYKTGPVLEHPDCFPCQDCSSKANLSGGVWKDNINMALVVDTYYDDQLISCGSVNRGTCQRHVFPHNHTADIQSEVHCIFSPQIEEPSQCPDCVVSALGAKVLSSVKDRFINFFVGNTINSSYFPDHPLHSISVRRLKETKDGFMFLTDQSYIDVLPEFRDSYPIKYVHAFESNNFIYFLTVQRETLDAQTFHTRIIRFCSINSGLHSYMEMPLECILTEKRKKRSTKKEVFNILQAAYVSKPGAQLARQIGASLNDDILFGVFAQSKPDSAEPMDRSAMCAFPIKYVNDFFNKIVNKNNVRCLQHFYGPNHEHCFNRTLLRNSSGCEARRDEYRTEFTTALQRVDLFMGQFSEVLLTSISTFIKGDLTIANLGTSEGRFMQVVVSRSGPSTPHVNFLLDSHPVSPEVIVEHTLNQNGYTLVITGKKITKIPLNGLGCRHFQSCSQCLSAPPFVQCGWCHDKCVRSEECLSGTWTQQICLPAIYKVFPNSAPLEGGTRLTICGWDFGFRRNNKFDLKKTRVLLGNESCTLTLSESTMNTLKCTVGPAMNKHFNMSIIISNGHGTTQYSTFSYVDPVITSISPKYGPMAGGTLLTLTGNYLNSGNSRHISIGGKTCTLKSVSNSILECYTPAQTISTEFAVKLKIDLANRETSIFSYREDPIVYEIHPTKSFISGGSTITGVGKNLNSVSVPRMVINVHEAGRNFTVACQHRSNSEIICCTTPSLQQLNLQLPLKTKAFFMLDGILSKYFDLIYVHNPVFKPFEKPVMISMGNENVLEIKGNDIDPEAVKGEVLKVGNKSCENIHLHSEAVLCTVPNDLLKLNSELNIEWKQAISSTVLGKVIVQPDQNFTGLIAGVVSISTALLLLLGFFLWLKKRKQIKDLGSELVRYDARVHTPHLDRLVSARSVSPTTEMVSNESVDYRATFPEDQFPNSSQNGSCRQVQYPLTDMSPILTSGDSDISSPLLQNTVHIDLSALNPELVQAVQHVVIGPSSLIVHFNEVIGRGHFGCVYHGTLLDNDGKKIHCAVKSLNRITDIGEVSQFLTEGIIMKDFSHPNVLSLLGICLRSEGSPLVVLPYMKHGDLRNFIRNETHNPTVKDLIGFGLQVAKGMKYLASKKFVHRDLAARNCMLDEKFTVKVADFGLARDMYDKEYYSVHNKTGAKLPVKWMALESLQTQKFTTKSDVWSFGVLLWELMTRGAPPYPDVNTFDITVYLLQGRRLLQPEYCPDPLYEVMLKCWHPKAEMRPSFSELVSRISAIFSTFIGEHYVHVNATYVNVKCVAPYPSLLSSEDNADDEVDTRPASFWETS

For `COc1cc(Nc2ncnc(-n3c(NCCCc4ccccc4)nc4ccccc43)n2)cc(OC)c1OC` [Compound 945], the IC50 on Zap-70 was greater than 8.8 µM; on Lck, 6.84 to 8.8 µM; on Tek, greater than 8.8 µM; on Kdr it was 0.782 to 4.69 µM; at EGFR, greater than 8.8 µM; on AKT, greater than 8.8 µM. Further, the IC50 on c-Met and at Itk was greater than 8.8 µM each time.
Regarding `COc1cc(Nc2ncnc(-n3c(NCCc4cccnc4)nc4ccccc43)n2)cc(OC)c1OC` [Compound 947], the IC50 at Zap-70 was greater than 9.03 µM; at Lck, greater than 9.03 µM; on Tek, greater than 9.03 µM; on Kdr, less than 0.802 µM; at EGFR it was greater than 9.03 µM; on AKT, greater than 9.03 µM. The IC50 on c-Met is greater than 9.03 µM; on Itk, 4.81 to 7.02 µM.
As to `COc1cc(Nc2ncnc(-n3c(NCCc4ccncc4)nc4ccccc43)n2)cc(OC)c1OC` [Compound 948], the IC50 on Zap-70 was greater than 9.03 µM; at Lck, 4.81 to 7.02 µM; on Tek it was greater than 9.03 µM; at Kdr, 0.802 to 4.81 µM; on EGFR it was greater than 9.03 µM; at AKT, greater than 9.03 µM. Also, the IC50 on c-Met is greater than 9.03 µM; on Itk it was 4.81 to 7.02 µM.
For `CC(C)(C)c1cc(Nc2ncnc(Nc3cccc(CC(=O)O)c3)n2)[nH]n1` [Compound 979], the IC50 on Zap-70 is greater than 12.2 µM; at Lck, greater than 12.2 µM; at Tek, greater than 12.2 µM; at Kdr, 6.53 to 9.53 µM; on EGFR it was 1.09 to 6.53 µM; at AKT it was greater than 12.2 µM. For the same molecule, the values for the IC50 at c-Met and on Itk were 1.09 to 6.53 µM and greater than 12.2 µM, respectively.
In the case of `CC(C)(C)c1cc(Nc2ncnc(Nc3ccc(CC(=O)O)cc3)n2)[nH]n1` [Compound 980], the IC50 at Zap-70 was greater than 12.2 µM; at Lck, greater than 12.2 µM; at Tek, greater than 12.2 µM; at Kdr, greater than 12.2 µM; at EGFR it was 1.09 to 6.53 µM; at AKT it was 1.09 to 6.53 µM. In addition, the IC50 at c-Met and on Itk was 9.53 to 12.2 µM in each case.
Turning to `O=C(O)Cc1ccc(Nc2ncnc(Nc3cc(-c4ccccc4)n[nH]3)n2)cc1` [Compound 982], the IC50 was 1.03 to 6.2 µM at Zap-70; 1.03 to 6.2 µM on Lck; 1.03 to 6.2 µM on Tek; less than 1.03 µM at Kdr; 1.03 to 6.2 µM on EGFR; 9.03 to 11.6 µM at AKT. The IC50 on c-Met and on Itk was 1.03 to 6.2 µM throughout.
On to `O=C(O)Cc1ccc(Nc2ncnc(Nc3cc(-c4ccco4)n[nH]3)n2)cc1` [Compound 984], for which the IC50 was 9.27 to 11.9 µM at Zap-70; 1.06 to 6.36 µM at Lck; greater than 11.9 µM at Tek; less than 1.06 µM on Kdr; less than 1.06 µM at EGFR; greater than 11.9 µM at AKT. In addition, the IC50 on c-Met and on Itk was 1.06 to 6.36 µM each time.
Consider `CC(C)(C)OC(=O)NCc1cccc(Nc2ncnc(Nc3cc(-c4ccco4)n[nH]3)n2)c1` [Compound 985], for which the IC50 is greater than 10 µM at Zap-70; 0.892 to 5.35 µM at Lck; 5.35 to 7.8 µM at Tek; 0.892 to 5.35 µM on Kdr; 0.892 to 5.35 µM at EGFR; greater than 10 µM on AKT. For the same molecule, the IC50 at c-Met and on Itk was 5.35 to 7.8 µM throughout.
As to `CC(C)(C)OC(=O)NCc1cccc(Nc2ncnc(Nc3cc(-c4ccccc4)n[nH]3)n2)c1` [Compound 986], the IC50 on Zap-70 is greater than 9.81 µM; on Lck, greater than 9.81 µM; at Tek, 7.63 to 9.81 µM; at Kdr, 0.872 to 5.23 µM; on EGFR, 5.23 to 7.63 µM; at AKT, greater than 9.81 µM. The IC50 lay in the range of 0.872 to 5.23 µM at c-Met and 5.23 to 7.63 µM on Itk.
With `COc1cc(Nc2ncnc(NN3CCCC3)n2)cc(OC)c1OC` [Compound 1002], the IC50 was greater than 13 µM on Zap-70; greater than 13 µM on Lck; greater than 13 µM at Tek; 10.1 to 13 µM at Kdr; greater than 13 µM at EGFR; greater than 13 µM on AKT. The IC50 at c-Met and at Itk was greater than 13 µM throughout.
Consider `COc1cc(Nc2ncnc(Nc3n[nH]c(Nc4ccc(Cl)cc4)n3)n2)cc(OC)c1OC` [Compound 1003], for which the IC50 at Zap-70 was 5.11 to 7.45 µM; on Lck, 0.851 to 5.11 µM; at Tek, 0.851 to 5.11 µM; on Kdr it was 0.851 to 5.11 µM; at EGFR it was 5.11 to 7.45 µM; on AKT, greater than 9.58 µM. Besides, the IC50 at c-Met and on Itk was 0.851 to 5.11 µM throughout.
With `Nc1ncnc(Nc2ccc3c(c2)OCO3)n1` [Compound 1025], the IC50 is 15.1 to 19.5 µM on Zap-70 (Table 3); greater than 19.5 µM on Lck (Table 3); greater than 19.5 µM on Tek; 10.4 to 15.1 µM at Kdr (Table 3); 15.1 to 19.5 µM at EGFR; greater than 19.5 µM at AKT. In addition, the IC50 on c-Met and on Itk (Table 3) was greater than 19.5 µM throughout.
Regarding `COc1cc(Nc2ncnc(-n3c(N[C@H](C)c4ccccc4)nc4ccccc43)n2)cc(OC)c1OC` [Compound 1034], the IC50 at Zap-70 is greater than 9.04 µM; at Lck it was 0.804 to 4.82 µM; at Tek, greater than 9.04 µM; at Kdr, less than 0.804 µM; on EGFR it was greater than 9.04 µM; on AKT, greater than 9.04 µM. Further, the IC50 on c-Met was 7.03 to 9.04 µM; at Itk, greater than 9.04 µM.
`COc1cc(Nc2ncnc(-n3c(N[C@H](CO)c4ccccc4)nc4ccccc43)n2)cc(OC)c1OC` [Compound 1035]: the IC50 at Zap-70 was greater than 8.76 µM; on Lck it was greater than 8.76 µM; on Tek it was greater than 8.76 µM; at Kdr, less than 0.779 µM; on EGFR, greater than 8.76 µM; at AKT, greater than 8.76 µM. The IC50 on c-Met and on Itk was greater than 8.76 µM throughout.
On to `COC(=O)C(c1ccccc1)c1ncnc(Nc2cc(OC)c(OC)c(OC)c2)n1` (stereo not shown) [Compound 1038], for which the IC50 is greater than 11 µM on Zap-70; 0.975 to 5.85 µM at Lck; greater than 11 µM at Tek; greater than 11 µM at Kdr; greater than 11 µM at EGFR; greater than 11 µM at AKT. The IC50 at c-Met and at Itk was greater than 11 µM in each case.
As to `COc1cc(Nc2ncnc(-c3cccnc3Cl)n2)cc(OC)c1OC` [Compound 1075], the IC50 on Zap-70 is greater than 12 µM; on Lck, greater than 12 µM; at Tek, greater than 12 µM; on Kdr, 9.36 to 12 µM; on EGFR, greater than 12 µM; on AKT, greater than 12 µM. Also, the IC50 at c-Met and at Itk was greater than 12 µM each time.
For the molecule `COc1cc(Nc2ncnc(-c3cccnc3NCCCN)n2)cc(OC)c1OC` [Compound 1078], the IC50 was greater than 10.9 µM at Zap-70; greater than 10.9 µM on Lck; greater than 10.9 µM on Tek; 0.972 to 5.83 µM at Kdr; greater than 10.9 µM on EGFR; greater than 10.9 µM at AKT. Further, the IC50 at c-Met and at Itk was greater than 10.9 µM throughout.

For the origin of these results see patent US7074789B2, “Kinase inhibitors” (Amgen Inc., priority 1999, dated 2006).
